The values that follow come from ChEMBL document CHEMBL1152627, “Structure-activity relationship of antiparasitic and cytotoxic indoloquinoline alkaloids, and their tricyclic and bicyclic analogues” (Bioorg Med Chem, 2009).

Structures can show the parent of a compound that is named as a salt. Active and inactive are the calls of the source. No cut-off for these calls is given here. Where only a bound is given, the exact number is not on record here.

For the first data set, the system named is Trypanosoma brucei rhodesiense. The experiment in a line: Antitrypanosomal activity against Trypanosoma brucei rhodesiense. The data set is classed as functional, organism-based.
Details: not given
`Cn1cccc2nc3ccccc3c1-2` [listing 1 of 2 here]: the IC50 turned out to be 138 µM.
On the same count and under the same terms, then `Cn1ccc2nc3ccccc3c-2c1` [listing 1 of 2 here], with 138 µM; and `Cn1cccc2c3ccccc3nc1-2` [listing 1 of 2 here], with 34 µM; and `Cn1cc2ccccc2c2nc3ccccc3c1-2` [listing 1 of 2 here], with 0.72 µM.
In turn, `Cn1cc2ccccc2c2c3ccccc3nc1-2` showed an IC50 of 3.33 µM.

The same data set, now with this note: Trypanosoma brucei.
`C[n+]1c2ccccc2cc2[n-]c3ccccc3c21` [CRYPTOLEPINE HYDROCHLORIDE] came in with an IC50 of 0.6 µM.
Still for that read-out and setting: in the case of `Cn1cc2nccc-2c2ccccc21` it was 31.5 µM; in that of `Cn1ccc2nc3ccccc3c-2c1` [listing 2 of 2 here], 109 µM.
The molecule `Cn1cc2ccccc2c2nc3ccccc3c1-2` [listing 2 of 2 here] showed an IC50 of 0.55 µM.
Take `Cn1cc2c3ccccc3nc-2c2ccccc21` [ISOCRYPTOLEPINE HYDROCHLORIDE]: the IC50 is 0.52 µM.
Still for that read-out and setting: then `Cn1cccc2c3ccccc3nc1-2` [listing 2 of 2 here], with 21.3 µM.
Same read-out and setting: then `Cn1cc2ccccc2c2ccnc1-2`, with 8.4 µM; and `Cn1cc2ccccc2c2c3ccccc3nc1-2.I`, with 2.59 µM; and `Cn1ccc2c3ccccc3nc-2c1`, with 93.7 µM.
The same measure, in the same setting: then `Cn1c2nc3ccccc3c-2cc2ccccc21` [NEOCRYPTOLEPINE HYDROCHLORIDE], with 2.23 µM; and `c1ccc2c(c1)ncc1[nH]ccc12`, with 25.5 µM.
`Cn1cccc2nc3ccccc3c1-2` [listing 2 of 2 here]: the IC50 was 86.1 µM.

A further data set concerns Trypanosoma cruzi. The experiment in a line: Antitrypanosomal activity against Trypanosoma cruzi. The data set is classed as functional, organism-based.
Details: not given
On to `Cn1ccc2nc3ccccc3c-2c1` [listing 2 of 2 here], for which the IC50 was > 95 µM.
Still for that read-out and setting: in the case of `Cn1cccc2c3ccccc3nc1-2` [listing 2 of 2 here] it was 89.2 µM; in that of `Cn1cc2ccccc2c2nc3ccccc3c1-2` [listing 1 of 2 here], 1.66 µM; in that of `Cn1cc2ccccc2c2c3ccccc3nc1-2`, 20.7 µM.
As for `Cn1cccc2nc3ccccc3c1-2` [listing 2 of 2 here], the IC50 is > 95 µM.

Still in this data set, the particulars now being: Trypanosoma cruzi.
Turning to `C[n+]1c2ccccc2cc2[n-]c3ccccc3c21` [CRYPTOLEPINE HYDROCHLORIDE], the IC50 was 0.22 µM.
On the same count and under the same terms, then `Cn1cc2nccc-2c2ccccc21`, with 76.8 µM.
On the same count and under the same terms, in the case of `Cn1cccc2nc3ccccc3c1-2` [listing 1 of 2 here] it was > 160 µM.
`Cn1ccc2nc3ccccc3c-2c1` [listing 1 of 2 here]: the IC50 is > 160 µM.
The same measure, in the same setting: then `Cn1cc2ccccc2c2nc3ccccc3c1-2` [listing 2 of 2 here], with 1.53 µM.
On the same count and under the same terms, then `Cn1cc2c3ccccc3nc-2c2ccccc21` [ISOCRYPTOLEPINE HYDROCHLORIDE], with 1.27 µM; and `Cn1cccc2c3ccccc3nc1-2` [listing 1 of 2 here], with 64.5 µM; and `Cn1cc2ccccc2c2ccnc1-2`, with 40.9 µM.
The molecule `Cn1cc2ccccc2c2c3ccccc3nc1-2.I` showed an IC50 of 11.9 µM.
Still for that read-out and setting: then `Cn1ccc2c3ccccc3nc-2c1`, with > 160 µM.
Same read-out and setting: then `Cn1c2nc3ccccc3c-2cc2ccccc21` [NEOCRYPTOLEPINE HYDROCHLORIDE], with 2.01 µM; and `c1ccc2c(c1)ncc1[nH]ccc12`, with 81 µM.

Another data set has as its system Leishmania donovani. As to the kind of experiment: Antileishmanial activity against Leishmania donovani axenic amastigotes. The data set is classed as functional, organism-based.
Details: not given
Turning to `Cn1ccc2nc3ccccc3c-2c1` [listing 2 of 2 here], the IC50 was > 95 µM.
Same read-out and setting: then `Cn1cc2ccccc2c2nc3ccccc3c1-2` [listing 2 of 2 here], with 16.8 µM.
On the same count and under the same terms, then `Cn1cccc2c3ccccc3nc1-2` [listing 1 of 2 here], with > 95 µM; and `Cn1cc2ccccc2c2c3ccccc3nc1-2.I`, with 6.6 µM.
In the case of `Cn1cccc2nc3ccccc3c1-2` [listing 2 of 2 here], the IC50 is > 95 µM.

Staying with this data set, now noted: Leishmania donovani.
In turn, `C[n+]1c2ccccc2cc2[n-]c3ccccc3c21` [CRYPTOLEPINE HYDROCHLORIDE] yielded an IC50 of 2.68 µM.
In turn, `Cn1cc2nccc-2c2ccccc21` had an IC50 of 169 µM.
The same measure, in the same setting: then `Cn1cccc2nc3ccccc3c1-2` [listing 1 of 2 here], with > 160 µM; and `Cn1ccc2nc3ccccc3c-2c1` [listing 1 of 2 here], with > 160 µM.
Molecule `Cn1cc2c3ccccc3nc-2c2ccccc21` [ISOCRYPTOLEPINE HYDROCHLORIDE] came in with an IC50 of 39.1 µM.
Still for that read-out and setting: in the case of `Cn1cccc2c3ccccc3nc1-2` [listing 2 of 2 here] it was > 160 µM; in that of `Cn1cc2ccccc2c2ccnc1-2`, 97.5 µM; in that of `Cn1cc2ccccc2c2nc3ccccc3c1-2` [listing 1 of 2 here], 15.5 µM.
Still for that read-out and setting: then `Cn1cc2ccccc2c2c3ccccc3nc1-2`, with 4.8 µM; and `Cn1ccc2c3ccccc3nc-2c1`, with 92.1 µM; and `Cn1c2nc3ccccc3c-2cc2ccccc21` [NEOCRYPTOLEPINE HYDROCHLORIDE], with 49.5 µM.
Regarding `c1ccc2c(c1)ncc1[nH]ccc12`, the IC50 came out at 183 µM.

In a further data set the test system is Plasmodium falciparum. The experiment in a line: Antimalarial activity against chloroquine and pyrimethamine-resistant Plasmodium falciparum K1 by [3H]hypoxanthine incorporation assay. The data set is classed as functional, organism-based.
Details: not given
Molecule `Cn1cccc2nc3ccccc3c1-2` [listing 1 of 2 here] returned an IC50 of 0.48 µM.
`Cn1ccc2nc3ccccc3c-2c1` [listing 2 of 2 here] had an IC50 of 2.4 µM.
`Cn1cc2ccccc2c2nc3ccccc3c1-2` [listing 2 of 2 here]: the IC50 was 0.57 µM.
As to `Cn1cccc2c3ccccc3nc1-2` [listing 2 of 2 here], the IC50 worked out at 14.7 µM.
`Cn1cc2ccccc2c2c3ccccc3nc1-2.I` came in with an IC50 of 0.032 µM.

The same data set, now with this note: Plasmodium falciparum, K1.
`C[n+]1c2ccccc2cc2[n-]c3ccccc3c21` [CRYPTOLEPINE HYDROCHLORIDE] displayed an IC50 of 0.12 µM.
The molecule `Cn1cc2nccc-2c2ccccc21` had an IC50 of 3.2 µM.
Turning to `Cn1ccc2nc3ccccc3c-2c1` [listing 1 of 2 here], the IC50 turned out to be 2.1 µM.
`Cn1cc2c3ccccc3nc-2c2ccccc21` [ISOCRYPTOLEPINE HYDROCHLORIDE] yielded an IC50 of 0.78 µM.
Still for that read-out and setting: then `Cn1cccc2c3ccccc3nc1-2` [listing 1 of 2 here], with 13 µM; and `Cn1cc2ccccc2c2ccnc1-2`, with 7.8 µM; and `Cn1cc2ccccc2c2nc3ccccc3c1-2` [listing 1 of 2 here], with 0.64 µM.
As for `Cn1cc2ccccc2c2c3ccccc3nc1-2`, the IC50 is 0.04 µM.
For the molecule `Cn1ccc2c3ccccc3nc-2c1`, the IC50 worked out at 0.45 µM.
The same measure, in the same setting: in the case of `Cn1c2nc3ccccc3c-2cc2ccccc21` [NEOCRYPTOLEPINE HYDROCHLORIDE] it was 2.61 µM; in that of `c1ccc2c(c1)ncc1[nH]ccc12`, 6.4 µM.
As to `Cn1cccc2nc3ccccc3c1-2` [listing 2 of 2 here], the IC50 came out at 0.38 µM.

System in the next data set: not listed separately
As to the kind of experiment: (§1) Toxicity against rat L6 cells. The data set is classed as cell-based. To be noted: rat, L6 cells.
Turning to `Cn1cc2nccc-2c2ccccc21`, the IC50 came out at 160 µM.
`Cn1ccc2nc3ccccc3c-2c1` [listing 1 of 2 here]: the IC50 is 390 µM.
On to `Cn1cccc2c3ccccc3nc1-2` [listing 1 of 2 here], for which the IC50 is 236 µM.
On to `Cn1cc2ccccc2c2ccnc1-2`, for which the IC50 is 153 µM.
In turn, `Cn1cc2ccccc2c2c3ccccc3nc1-2.I` yielded an IC50 of 1.5 µM.
Still for that read-out and setting: then `Cn1cc2ccccc2c2nc3ccccc3c1-2` [listing 1 of 2 here], with 1.48 µM; and `Cn1ccc2c3ccccc3nc-2c1`, with > 490 µM; and `c1ccc2c(c1)ncc1[nH]ccc12`, with 173 µM.
On the same count and under the same terms, in the case of `Cn1cccc2nc3ccccc3c1-2` [listing 2 of 2 here] it was 132 µM.

Another data set deals with L6. The description is as §1. The data set is classed as cell-based. To be noted: l6.
Turning to `Cn1cccc2nc3ccccc3c1-2` [listing 1 of 2 here], the IC50 was 179 µM.
`Cn1ccc2nc3ccccc3c-2c1` [listing 2 of 2 here]: the IC50 was > 290 µM.
The same measure, in the same setting: then `Cn1cc2ccccc2c2nc3ccccc3c1-2` [listing 2 of 2 here], with 2.2 µM; and `Cn1cccc2c3ccccc3nc1-2` [listing 2 of 2 here], with 300 µM.
Still for that read-out and setting: then `Cn1cc2ccccc2c2c3ccccc3nc1-2`, with 1.3 µM.

System in the next data set: not listed separately
As to the kind of experiment: Inhibition of beta-hematin formation by BHIA assay. The data set is classed as functional.
Details: not given
As to `C[n+]1c2ccccc2cc2[n-]c3ccccc3c21` [CRYPTOLEPINE HYDROCHLORIDE], the inhibition result is “Active”.
As for `Cn1cc2c3ccccc3nc-2c2ccccc21` [ISOCRYPTOLEPINE HYDROCHLORIDE], the inhibition result is “Active”.
Consider `Cn1cc2ccccc2c2c3ccccc3nc1-2.I`, for which the IC50 is 3.32 molar equivalents.
As to `Cn1cc2ccccc2c2c3ccccc3nc1-2`, the IC50 amounted to 2.76 molar equivalents.
In the case of `Cn1ccc2c3ccccc3nc-2c1`, the inhibition result is “inactive”.
With `Cn1c2nc3ccccc3c-2cc2ccccc21` [NEOCRYPTOLEPINE HYDROCHLORIDE], the inhibition entry was “Active”.

The test system of another data set is Nucleic Acid. As to the kind of experiment: Displacement of methyl green dye from DNA. The data set is classed as nucleic-acid assay.
Details: not given
As to `C[n+]1c2ccccc2cc2[n-]c3ccccc3c21` [CRYPTOLEPINE HYDROCHLORIDE], the inhibition result was “Active”.
Same read-out and setting: in the case of `Cn1cc2c3ccccc3nc-2c2ccccc21` [ISOCRYPTOLEPINE HYDROCHLORIDE] it was “Active”.
On to `Cn1cc2ccccc2c2c3ccccc3nc1-2.I`, for which the IC50 worked out at 87 µM.
Still for that read-out and setting: then `Cn1cc2ccccc2c2c3ccccc3nc1-2`, with 81 µM.
On to `Cn1ccc2c3ccccc3nc-2c1`, for which the IC50 is > 3800 µM.
In the case of `Cn1c2nc3ccccc3c-2cc2ccccc21` [NEOCRYPTOLEPINE HYDROCHLORIDE], the inhibition result is “Active”.
